Test in all cases: growth of human tumour cells (NCI), 48 h
In test [1] the test system is ACHN renal.
Test [2] relates to HS 578T breast.
Test [3] deals with HCC-2998 colon.
Test [4] relates to NCI-H226 lung.
In test [5] the test system is OVCAR-4 ovarian.
The subject of test [6] is SF-539 CNS.
Test [7] deals with SK-MEL-5 melanoma.
In test [8] the test system is OVCAR-3 ovarian.
The test system of test [9] is SR leukemia.
Test [10] concerns RXF 393 renal.

In PubChem BioAssay (NCI) one finds TGI data, which are given here for 28 compounds.

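Where inhibition never reached the appropriate level, the endpoint shown equals the highest concentration tested. Otherwise, values were interpolated linearly from a five-concentration, 48-hour dose response in 96-well plates. Definition used: TGI = concentration required for complete inhibition of growth.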 A value given as a limit tells only on which side of the number the result lay.

Take `CN(C)c1ccc(/C=C(\NC(=O)c2ccccc2)C(=O)NC(CC(=O)O)C(=O)O)cc1` (configuration not stated): the TGI in [1], in test [2], in test [3], in test [4], in test [5] and in [6] was over 100 µM each time. Moreover, the TGI in test [7], in test [8], in [9] and in test [10] was over 100 µM throughout.
Regarding `CC(C)Oc1cccc(N2C(n3ccnc3)=Nc3ccncc3S2(=O)=O)c1`, the TGI in test [1] was 21.6 µM; in test [2], 38.5 µM; in test [3], 31 µM; in test [4], 42.5 µM; in test [5] it was 33.7 µM; in test [6] it was 20.1 µM. In addition, the TGI turned out to be 26.3 µM in test [7], 21.9 µM in [8], 14.9 µM in [9] and 28.9 µM in test [10].
For the compound `CC(=O)Nc1nc(Cl)cc(NCC2(CO)CCC2)n1`, the TGI in [1], in test [2], in test [3], in test [4], in [5] and in test [7] was over 100 µM throughout. Also, the TGI in test [8], in test [9] and in test [10] was over 100 µM in each case.
As to `Cc1c(C)n(-c2ccccc2)c2nc(S(C)=O)nc(S(C)=O)c12` (configuration not stated), the TGI in [1] was determined as 18.5 µM; in test [2], 70.5 µM; in test [3], 30.3 µM; in test [4], 36.2 µM; in test [5], 17.4 µM; in [6] it was 14.7 µM. Moreover, the TGI stood at 6.1 µM in test [7], 6.77 µM in [8], 2.82 µM in test [9] and 14.4 µM in test [10].
On to `Cc1ccc2cccc(-c3cccc4ccccc34)c2n1`, for which the TGI in test [1] is over 100 µM; in test [2] it was 81.9 µM; in test [3], 29.1 µM; in test [4], 74.5 µM; in test [5], over 100 µM; in test [6], over 100 µM. For the same compound, the TGI is 32.2 µM in [7], over 100 µM in test [8], 35.8 µM in test [9] and 35.7 µM in test [10].
In the case of `O=CC(I)=C(c1ccccc1)c1ccccc1`, the TGI in test [1] came out at 38.1 µM; in [2], 63 µM; in test [3] it was 35.8 µM; in test [4], 57 µM; in test [5], 27.3 µM; in [6], 45.3 µM. Further, the TGI in test [7] was determined as 31.9 µM; in [8] it was 17.7 µM; in test [9], 27.9 µM; in test [10], 41.4 µM.
As for `c1ccc(C2=NC3OC2c2ccccc23)cc1` (configuration not stated), the TGI in test [1], in test [2], in [3], in [4], in [5] and in test [6] was over 10 µM throughout. The TGI in test [7], in [8], in test [9] and in test [10] was over 10 µM each time.
For the compound `CCCCI(O)OS(=O)(=O)c1ccc(C)cc1`, the TGI in test [1], in [2], in test [3], in test [4], in test [5] and in test [6] was over 100 µM each time. In addition, the TGI in test [7] was over 100 µM; in [8], over 100 µM; in [9] it was 73.3 µM; in test [10], over 100 µM.
Turning to `[N-]=[N+]=CC(=O)C1CCCN1C(=O)c1ccccc1` (configuration not stated), the TGI in test [1], in test [2], in test [3], in [4], in test [5] and in test [6] was over 10 µM throughout. In addition, the TGI in test [7], in [8], in test [9] and in [10] was over 10 µM each time.
`O=C(ON=C1c2ccccc2C(Br)C(Br)c2ccccc21)c1ccccc1` (configuration not stated): the TGI in test [1] is 33 µM; in [2], 53.6 µM; in [3], 38.1 µM; in test [4], 34.1 µM; in test [5] it was 30 µM; in [6], 13.9 µM. Moreover, the TGI in test [7] was determined as 31.7 µM; in test [8] it was 28.7 µM; in test [9] it was 9.12 µM; in test [10], 28.4 µM.
On to `CCOC1C=CC(=O)C(CO)O1` (configuration not stated), for which the TGI in test [1] is 24.1 µM; in [2], 49 µM; in test [3], 34.4 µM; in test [4], 46.3 µM; in test [5], 26.5 µM; in test [6] it was 23.8 µM. The TGI is 37.1 µM in test [7], 19.1 µM in [8], 6.63 µM in test [9] and 24.2 µM in [10].
Turning to `O=C(CC(NC(=O)C(F)(F)F)C(=O)O)OCc1ccccc1` (configuration not stated), the TGI in test [1], in test [2], in test [3], in [4], in [5] and in [6] was over 100 µM in each case. The TGI in test [7], in test [8], in test [9] and in test [10] was over 100 µM each time.
Turning to `COC(=O)[C@]1(C)CCC[C@@]2(C)C1CC[C@]13C=C(C(C)C)[C@H](CC21)CC3(Cl)C#N` (some centres not stated), the TGI is over 100 µM in test [1]; over 100 µM in test [2]; over 100 µM in test [3]; 75.4 µM in test [4]; over 100 µM in [5]; over 100 µM in test [6]. For the same compound, the TGI was over 100 µM in test [7], over 100 µM in [8], over 100 µM in [9] and 97.5 µM in test [10].
Regarding `COc1ccc(N=Nc2c(-c3c(OC)cc4occc4c3OC)[nH]c(=O)c(C#N)c2C)cc1`, the TGI in test [1], in test [2], in test [3], in test [4], in test [5] and in [6] was over 100 µM throughout. The TGI in test [7], in test [8], in test [9] and in test [10] was over 100 µM each time.
As to `S=C(Cc1ccc2c(c1)Sc1ccccc1O2)N1CCOCC1`, the TGI in test [1] was over 100 µM; in test [2], 61.6 µM; in test [3] it was over 100 µM; in test [4], over 100 µM; in test [5], over 100 µM; in test [6] it was 61.1 µM. In addition, the TGI in [8], in [9] and in [10] was over 100 µM each time.
As to `COc1ccc2nc(NC(=O)/C(C#N)=C/c3ccccc3)sc2c1`, the TGI in test [1], in [2], in [3], in [4], in test [5] and in test [6] was over 100 µM each time. Moreover, the TGI in [7] is over 73.6 µM; in test [8], over 100 µM; in [9], 21.9 µM; in test [10] it was over 100 µM.
`CC(C)NC(=O)OCc1c(COC(=O)NC(C)C)n(C)c2c1ccc1sccc12`: the TGI in test [1] is over 63.8 µM; in test [2], 34.6 µM; in [3] it was 30.3 µM; in test [4] it was over 30.1 µM; in [5] it was 36.5 µM; in [6], 26 µM. For the same compound, the TGI in test [7] is 26.3 µM; in [8], 36.9 µM; in [9], over 64.6 µM; in [10], 39.9 µM.
Turning to `CCOC(=O)CSc1nc(N)c2c(-c3ccccc3)c3c(nc2n1)CCCC3`, the TGI in [1], in test [2], in [3], in [4], in [5] and in test [6] was over 100 µM in each case. Moreover, the TGI in test [7], in test [8], in test [9] and in test [10] was over 100 µM each time.
Regarding `O=C(CCc1cc(O)cc(O)c1)NCCc1cc(OCc2ccccc2)cc(OCc2ccccc2)c1`, the TGI was determined as 15.6 µM in test [1]; 48.7 µM in test [2]; 35 µM in test [3]; 51.3 µM in test [4]; 44.6 µM in [6]; 25.6 µM in test [7]. Besides, the TGI in test [8] came to 52.2 µM; in [9], 27 µM; in test [10], 27.4 µM.
Consider `CCCCCCN(CCCCCC)C(=S)N/N=C(\C)c1ccccn1`, for which the TGI in test [1] worked out at 2.17 µM; in [2], 4.46 µM; in [3], 9.03 µM; in test [4], 2.27 µM; in test [5] it was 3.16 µM; in test [6], 2.77 µM. For the same compound, the TGI in [7] stood at 2.57 µM; in [8] it was 2.83 µM; in test [9], 11.5 µM; in [10], 2.78 µM.
In the case of `O=C(NCc1ccccc1)c1cc2ccccc2oc1=Nc1cccc(C(F)(F)F)c1`, the TGI in test [1] is over 100 µM; in test [2], over 100 µM; in test [3], 61.1 µM; in [4], 97.7 µM; in test [5], over 100 µM; in test [7] it was 70.8 µM. For the same compound, the figures for the TGI in test [8], in test [9] and in [10] were over 100 µM, 66.1 µM and over 100 µM, respectively.
`COC1OC(C)C(NC(=O)OCC(Cl)(Cl)Cl)C2OC(C)(C)OC12` (configuration not stated): the TGI in test [1], in [2], in test [3], in test [4], in test [5] and in [6] was over 100 µM each time. Moreover, the TGI in [7], in [8], in test [9] and in test [10] was over 100 µM each time.
For the compound `CC1=CC2C3(C)C(C)(C(C)=CP3(=O)c3c(C(C)C)cc(C(C)C)cc3C(C)C)C1P2(=O)c1c(C(C)C)cc(C(C)C)cc1C(C)C` (configuration not stated), the TGI in test [1] was 8.96 µM; in [2], 6.25 µM; in test [3], 3.47 µM; in test [4], 6.08 µM; in test [5] it was 16.1 µM; in test [7] it was 3 µM. The TGI turned out to be 6.43 µM in test [8], 3.92 µM in test [9] and 15.8 µM in test [10].
With `NCCN1CCCCCc2ccccc21`, the TGI in test [1], in test [2], in test [3], in test [4], in [5] and in [6] was over 10 µM each time. In addition, the TGI in [7], in test [8], in test [9] and in test [10] was over 10 µM throughout.
In the case of `CN1CSC(=S)N(c2cccc(C(F)(F)F)c2)C1`, the TGI in test [1] stood at 36.5 µM; in [2] it was 82.2 µM; in test [3], 32.9 µM; in test [4], 61.8 µM; in [5] it was 37.5 µM; in [6], 52 µM. The TGI was 31.4 µM in test [7], 46.7 µM in test [8], 52.5 µM in [9] and over 100 µM in test [10].
As for `O=C(COc1ccc(OCC(=O)N/N=C/c2ccc(-c3ccc(Cl)cc3Cl)o2)c(Cl)c1)N/N=C/c1ccc(-c2ccc(Cl)cc2Cl)o1`, the TGI in [1], in test [2], in test [3], in test [4], in test [5] and in test [7] was over 100 µM each time. For the same compound, the values for the TGI in [8], in test [9] and in test [10] were over 100 µM, 8.25 µM and 81.2 µM, respectively.
In the case of `Cc1ccc(-c2cc(-c3ccco3)c(C#N)c(=S)[nH]2)cc1`, the TGI in test [1] was over 100 µM; in test [2] it was over 100 µM; in test [3], over 100 µM; in [4], over 100 µM; in [5] it was over 100 µM; in test [7], 61.9 µM. Also, the TGI in test [8], in test [9] and in test [10] was over 100 µM in each case.
Take `Clc1cccc(-c2sc(-c3cccs3)cc2Cc2cccs2)c1`: the TGI in [1], in test [2], in [3], in test [4], in test [5] and in test [6] was over 10 µM in each case. Also, the TGI in test [7], in [9] and in test [10] was over 10 µM throughout.
